According to patent US7494987B2, “Agent for treating respiratory diseases containing 4-hydroxypiperidine derivative as active ingredient” (priority 2002, dated 2009):

What was measured:
[1] = system: Citric Acid-Induced Cough Reflex in Guinea Pigs; experiment: Inhibitory effect on citric acid-induced cough reflex in guinea pigs (Experimental Example 1-1, plethysmograph); assay type: in vivo; conditions: oral, cough measured 1 hr after treatment
Protocol: Guinea pigs were fasted overnight. They were fixed to a plethysmograph, and then the change of inner pressure in the plethysmograph (body side) was recorded on an ink-recording paper (Nihon Kohden Corporation; WI-642G) via the differential pressure transducer (Nihon Kohden Corporation; TP-602T) and the respiration amplifier (Nihon Kohden Corporation; AR-601G). Using a nebulizer (OMRON Corporation; NE-U12), 20 W/V % citric acid solution was sprayed into the plethysmograph (head side) for 2 min (about 1 mL/min). The number of cough response for 15 min after the spray was measured.
(§1) The cough response was measured 3 hrs before and 1 hr after oral treatment. The test compound was not administered to the guinea pigs showing 5 coughs response or less before the treatment. The ratio of cough response between before and after the treatment (Post/Pre×100) was calculated, and the percent inhibition of the test compound on cough reflex induced by citric acid was determined according to the following formula: [(CRRcontrol−CRRtest)/(CRRcontrol)]×100 (%) • CRRcontrol: Ratio (%) of cough response in the control group • CRRtest: Ratio (%) of cough response in the compound-treated group

[2] = system: Citric Acid-Induced Cough Reflex in Guinea Pigs; experiment: Inhibitory action on citric acid-induced cough reflex in guinea pigs (Experimental Example 1-2, nasal inhalation-exposure apparatus); assay type: in vivo; conditions: oral, 30 mg/kg, cough measured 1 hr after treatment
Protocol: Guinea pigs were fasted overnight. They were fixed to an nasal inhalation-exposure apparatus for small animals (M.I.P.S. Co., Ltd.), and then 20 W/V % citric acid solution was sprayed into the plethysmograph for 2 min (about 1 mL/min) using a nebulizer (M.I.P.S. Co., Ltd.). The number of cough response for 15 min after the spray was measured.
as §1, with “5 cough responses” for “5 coughs response”, “compound-treated group.” for “compound-treated group”

Row | Structure (SMILES) | melting point | other results
1 | CN(CC1(O)CCN(CCc2ccc(C#N)cc2)CC1)c1ccc(C(=O)O)c(Cl)c1 [Example 5, 2-chloro-4-({1-[2-(4-cyanophenyl)ethyl]-4-hydroxypiperidin-4-ylmethyl}methylamino)benzoic acid] | 186.2 to 189.6 °C | 
2 | COC(=O)c1ccc(OCC2(O)CCN(CCc3ccc(C#N)cc3)CC2)cc1 [Example 13, methyl 4-{1-[2-(4-cyanophenyl)ethyl]-4-hydroxypiperidin-4-ylmethoxy}benzoate] | 118.6 to 120.6 °C | 
3 | CN(CC1(O)CCN(CCc2ccc(C#N)cc2)CC1)c1ccc(C(=O)NOC2CCCCO2)cc1 (stereo not drawn) [Example 23, 4-({1-[2-(4-cyanophenyl)ethyl]-4-hydroxypiperidin-4-ylmethyl}methylamino)-N-(tetrahydropyran-2-yloxy)benzamide] | 100.9 to 102.1 °C | 
4 | COC(=O)c1ccc(N(C)CC2(O)CCN(CCc3ccc(C(F)(F)F)cc3)CC2)cc1 [Example 24, methyl 4-({4-hydroxy-1-[2-(4-trifluoromethylphenyl)ethyl]piperidin-4-ylmethyl}methylamino)benzoate] | 142.7 to 143.9 °C | 
5 | COc1ccc2c3c1O[C@H]1[C@@H](O)C=C[C@H]4[C@@H](C2)N(C)CC[C@@]341 [Codeine phosphate] |  | Percent inhibition on cough reflex ([1]; 10 mg/kg): 40%; Percent inhibition on cough reflex ([1]; 30 mg/kg): 44%; Percent inhibition on cough reflex ([1]; 60 mg/kg): 66%
6 | CN(CC1(O)CN(CCc2ccc(C#N)cc2)C1)c1ccc(C(=O)O)cc1 [Example 17, 4-({1-[2-(4-cyanophenyl)ethyl]-3-hydroxyazetidin-3-ylmethyl}methylamino)benzoic acid] | 197.9 to 199.4 °C | 
7 | COC(=O)c1ccc(N(C)CC2(OC)CCN(CCc3ccc(C#N)cc3)CC2)cc1 [Example 25, methyl 4-({1-[2-(4-cyanophenyl)ethyl]-4-methoxypiperidin-4-ylmethyl}methylamino)benzoate] | 126.9 to 134.5 °C | 
8 | CN(CC1(O)CCN(CCCc2ccc(C#N)cc2)CC1)c1ccc(C(=O)O)cc1.Cl | 150.1 to 151.2 °C | 
9 | Cc1cc(C(=O)O)ccc1N(C)CC1(O)CCN(CCc2ccc(C#N)cc2)CC1.Cl | 127.1 to 132.7 °C | 
10 | CN(CC1(O)CCCN(CCc2ccc(C#N)cc2)C1)c1ccc(C(=O)O)cc1 (stereo not drawn) [Example 15, 4-({1-[2-(4-cyanophenyl)ethyl]-3-hydroxypiperidin-3-ylmethyl}methylamino)benzoic acid] | 166.9 to 181.3 °C | 
11 | CN(CC1(O)CCN(CCc2ccc(C#N)cc2)CC1)c1ccc(C(=O)NO)cc1.Cl | 191.3 to 193.9 °C | 
12 | COC(=O)c1ccc(S(=O)(=O)CC2(O)CCN(CCc3ccc(C#N)cc3)CC2)cc1 [Example 46, methyl 4-{1-[2-(4-cyanophenyl)ethyl]-4-hydroxypiperidin-4-ylmethylsulfonyl}benzoate] | 135.4 to 137.2 °C | 
13 | CN(CC1(O)CCCN(CCc2ccc(C#N)cc2)C1)c1ccc(C(=O)O)cc1.Cl (stereo not drawn) | 220.1 to 233.3 °C | 
14 | Cl.N#Cc1ccc(CCN2CCC(O)(C[S+]([O-])c3ccc(C(=O)O)cc3)CC2)cc1 (stereo not drawn) | 279.7 °C (dec.) | 
15 | CN(CC1(O)CCCN(CCc2ccc(C#N)cc2)C1)c1ccc(C(=O)OC(C)(C)C)cc1 (stereo not drawn) [Example 9, tert-butyl 4-({1-[2-(4-cyanophenyl)ethyl]-3-hydroxypiperidin-3-ylmethyl}methylamino)benzoate] | 41.2 to 44.1 °C | 
16 | CN(CC1(O)CCN(Cc2ccc(C#N)cc2)CC1)c1ccc(C(=O)O)cc1.Cl | 153.1 to 157.7 °C | 
17 | COc1cc(C(=O)O)ccc1N(C)CC1(O)CCN(CCc2ccc(C#N)cc2)CC1 [Example 4, 4-({1-[2-(4-cyanophenyl)ethyl]-4-hydroxypiperidin-4-ylmethyl}methylamino)-3-methoxybenzoic acid] | 252.6 °C (dec.) | 
18 | COc1cc(N(C)CC2(O)CCN(CCc3ccc(C#N)cc3)CC2)c(Cl)cc1C(=O)O.Cl | 116.3 to 120.8 °C | 
19 | CN(CCC1(O)CCN(CCc2ccc(C#N)cc2)CC1)c1ccc(C(=O)O)cc1 [Example 16, 4-[(2-{1-[2-(4-cyanophenyl)ethyl]-4-hydroxypiperidin-4-yl}ethyl)methylamino]benzoic acid] | 146.8 to 148.4 °C | 

Row | Structure (SMILES) | melting point | other results
20 | COc1cc(N(C)CC2(O)CCN(CCc3ccc(C#N)cc3)CC2)c(Cl)cc1C(=O)O [Example 7, 5-chloro-4-({1-[2-(4-cyanophenyl)ethyl]-4-hydroxypiperidin-4-ylmethyl}methylamino)-2-methoxybenzoic acid] | 226.8 to 228.3 °C | 
21 | COC(=O)c1ccc(SCC2(O)CCN(CCc3ccc(C#N)cc3)CC2)cc1 [Example 42, methyl 4-{1-[2-(4-cyanophenyl)ethyl]-4-hydroxypiperidin-4-ylmethylthio}benzoate] | 119.1 to 120.8 °C | 
22 | CN(CC1(O)CN(CCc2ccc(C#N)cc2)C1)c1ccc(C(=O)O)cc1.Cl [Example 34, 4-({1-[2-(4-Cyanophenyl)ethyl]-3-hydroxyazetidin-3-ylmethyl}methylamino)benzoic acid monohydrochloride] | 209.1 to 210.5 °C | Percent inhibition on cough reflex [2]: 39%
23 | CN(CC1(O)CCN(CCc2ccc(C#N)cc2)C1)c1ccc(C(=O)O)cc1.Cl (stereo not drawn) [Example 29, 4-({1-[2-(4-Cyanophenyl)ethyl]-3-hydroxypyrrolidin-3-ylmethyl}methylamino)benzoic acid monohydrochloride] | 122.8 to 132.5 °C | Percent inhibition on cough reflex [2]: 39%
24 | COC(=O)c1ccc(N(C)CC2(O)CCN(CCc3ccc(C#N)cc3)CC2)cc1 [Example 12, methyl 4-({1-[2-(4-cyanophenyl)ethyl]-4-hydroxypiperidin-4-ylmethyl}methylamino)benzoate] | 140.5 to 142.2 °C | 
25 | Cn1c(=O)c2[nH]cnc2n(C)c1=O [Theophylline] |  | Percent inhibition on cough reflex ([1]; 20 mg/kg): 37%
26 | CN(CC1(O)CCN(CCc2ccc(C#N)cc2)C1)c1ccc(C(=O)O)cc1 (stereo not drawn) [Example 14, 4-({1-[2-(4-cyanophenyl)ethyl]-3-hydroxypyrrolidin-3-ylmethyl}methylamino)benzoic acid] | 106.1 to 130.8 °C | 
27 | CN(CC1(O)CCN(CCc2ccc(C#N)cc2)CC1)c1ccc(C(=O)O)cc1Cl.Cl | 254.2 to 258.9 °C | 
28 | CN(CCC1(O)CCN(CCc2ccc(C#N)cc2)CC1)c1ccc(C(=O)O)cc1.Cl | 231.3 to 236.4 °C | 
29 | Cc1cc(C(=O)O)ccc1N(C)CC1(O)CCN(CCc2ccc(C#N)cc2)CC1 [Example 3, 4-({1-[2-(4-cyanophenyl)ethyl]-4-hydroxypiperidin-4-ylmethyl}methylamino)-3-methylbenzoic acid] | 103.6 to 108.7 °C | 
30 | COC(=O)c1ccc(N(C)CC2(O)CCN(CCCc3ccc(C#N)cc3)CC2)cc1 [Example 21, methyl 4-({1-[3-(4-cyanophenyl)propyl]-4-hydroxypiperidin-4-ylmethyl}methylamino)benzoate] | 126.8 to 129.7 °C | 
31 | COC1(CN(C)c2ccc(C(=O)O)cc2)CCN(CCc2ccc(C#N)cc2)CC1.Cl | 226.3 to 230.7 °C | 
32 | CN(CC1(O)CCN(CCOc2ccc(C#N)cc2)CC1)c1ccc(C(=O)O)cc1.Cl | 258.4 to 260.1 °C | 
33 | COC(=O)c1ccc(N(C)CC2(O)CCN(CCOc3ccc(C#N)cc3)CC2)cc1 [Example 22, methyl 4-({1-[2-(4-cyanophenoxy)ethyl]-4-hydroxypiperidin-4-ylmethyl}methylamino)benzoate] | 112.5 to 113 °C | 
34 | COC(=O)c1ccc([S+]([O-])CC2(O)CCN(CCc3ccc(C#N)cc3)CC2)cc1 (stereo not drawn) [Example 44, methyl 4-{1-[2-(4-cyanophenyl)ethyl]-4-hydroxypiperidin-4-ylmethylsulfinyl}benzoate] | 169.6 to 174.5 °C | 
35 | COC(=O)c1ccc(N(C)CC2(O)CN(CCc3ccc(C#N)cc3)C2)cc1 [Example 10, methyl 4-({1-[2-(4-cyanophenyl)ethyl]-3-hydroxyazetidin-3-ylmethyl}methylamino)benzoate] | 145.5 to 149.1 °C | 
36 | COC(=O)c1ccc(N(C)CC2(O)CCN(Cc3ccc(C#N)cc3)CC2)cc1 [Example 20, methyl 4-{[1-(4-cyanobenzyl)-4-hydroxypiperidin-4-ylmethyl]methylamino}benzoate] | 127.5 to 137.1 °C | 
37 | CN(CC1(O)CCN(CCc2ccc(C#N)cc2)CC1)c1ccc(C(=O)O)cc1Cl [Example 6, 3-chloro-4-({1-[2-(4-cyanophenyl)ethyl]-4-hydroxypiperidin-4-ylmethyl}methylamino)benzoic acid] | 110.7 to 112.4 °C | 
38 | CN(CC1(O)CCN(CCc2ccc(C#N)cc2)CC1)c1ccc(C(=O)O)c(Cl)c1.Cl | 145.2 to 148 °C | 
